# According to US4072759A, “Novel benzylalcohol derivatives as antidiabetics and cardiotonics” (Tanabe Seiyaku Co., Ltd., priority 1976, dated 1978):
# How the values were obtained:
# [1] = 50 % lethal dose by intravenous injection to mice; conditions: mouse, in vivo
# Excerpt: Further, the toxicity of the benzylalcohol derivative (I) of the present invention is remarkably low.
# [2] = decrease of blood sugar in mice, oral administration prior to subcutaneous injection of glucose; type: in vivo
# Description: For example, when α-(3,4-dimethoxyphenethylaminomethyl)-2-hydroxybenzylalcohol is administered orally to mice at a dose of 10 mg/kg prior to subcutaneous injection of glucose (1 g/kg), said 2-hydroxybenzylalcohol derivative of the invention decreases the blood sugar level by about 30 %. On the other hand, when examined under the same conditions as above, 100 mg/kg of Phenformin (Chemical name: 1-phenethylbiguanide) are required to induce 13 % decrease in said blood sugar.
# adrenergic β1-receptor [3] = conditions: cited from earlier work
# adrenergic β1-receptor [4] = test: cardiac contractile activity (general statement)
# adrenergic β1-receptor [5] = test: increase of cardiac contractile force after injection into femoral vein of dogs; type: in vivo; conditions: injected into femoral vein, 10 μg/kg
smiles,measurement,setting,value
"COc1ccc(CCNCC(O)c2ccc(O)cc2)cc1OC (stereo not drawn) [α-(3,4-dimethoxyphenethylaminomethyl)-4-hydroxybenzylalcohol]",LD50,[1],~198 mg/kg
"N=C(N)NC(=N)NCCc1ccccc1 [Phenformin, 1-phenethylbiguanide, reference compound]",decrease in blood sugar,"[2]; mice, same conditions, 100 mg/kg",13%
"COc1cc(CCNCC(O)c2ccc(O)c(O)c2)cc(OC)c1OC (stereo not drawn) [α-(3,4,5-trimethoxyphenethylaminomethyl)-3,4-dihydroxybenzylalcohol]",activation of adrenergic β1-receptor,adrenergic β1-receptor [3],selective activation of adrenergic β1 -receptor
"COc1ccc(CCNCC(O)c2ccccc2O)cc1OC (stereo not drawn) [α-(3,4-dimethoxyphenethylaminomethyl)-2-hydroxybenzylalcohol]",decreases the blood sugar level,"[2]; mice, oral, 10 mg/kg, prior to subcutaneous glucose (1 g/kg)",about 30%
same,decrease of blood sugar (in words),"[2]; mouse, in vivo",remarkable decrease of blood sugar
same,cardiac contractile activity,adrenergic β1-receptor [4],no substantial cardiac contractile activity
"COc1ccc(CCNCC(O)c2ccc(O)c(O)c2)cc1OC (stereo not drawn) [α-(3,4-dimethoxyphenethylaminomethyl)-3,4-dihydroxybenzylalcohol]",activation of adrenergic β1-receptor,adrenergic β1-receptor [3],selective activation of adrenergic β1 -receptor
"COc1ccc(CCNCC(O)c2cccc(O)c2)cc1OC (stereo not drawn) [α-(3,4-dimethoxyphenethylaminomethyl)-3-hydroxybenzylalcohol]",increase the cardiac contractile force,adrenergic β1-receptor [5],55%
